Results from patent US4137236A, “Amino-spiro[oxa(or thia)cycloalkane-penam]-carboxylic” (U C B, Societe Anonyme, priority 1977, dated 1979).

Experiments:
[1] = test system: Escherichia coli B-Ampi R; assay: MIC in gelose culture medium (relative to reference penicillin); assay type: cell-based; settings: E.COLI B AMPI-R
Procedure: This is a mutant of the preceding strain which we have produced.
(§1) For a certain number of compounds of formula (XV), the minimum inhibitory concentration (MIC) was determined as follows:
(§2) The products to be tested are introduced in increasing concentrations into a gelose culture medium in Petri dishes. A multiple inoculator is used to deposit simultaneously drops (10 microliters) of inoculum (suspension of approximately 10^5 bacteria per ml) onto the surface of the medium. After incubation at 37° C for 24 hours, the growth of the bacteria is observed. By definition, the MIC is expressed by the minimum concentration of tested compound which inhibits the multiplication of the bacteia. In the following results, however, the MIC is given as being equal to 1 for the reference compounds and the activity figures given for the tested compounds of formula (XV) are, therefore, relative values. This presentation of the results is more correct and the most reproducible because, for one and the same bacterial strain, different MIC values can be observed if they are measured at different times. This is bound up with the "seasonal" variations in the strains and their nutrient medium.

Escherichia coli B = assay: as above; assay type: cell-based; settings: E.COLI B
Procedure: This is a well-known collection strain of Escherichia coli which produces very little beta-lactamase (of type I) and is, therefore, very sensitive to penicillins. As regards the classification of the beta-lactamases, use is here made of that proposed by M. H. RICHMOND and R. B. SYKES (see Advances in Microbial Physiology,9,(1973),pp.43 and 45).
as §1, §2

[2] = test system: Staphylococcus aureus 6538; assay: as above; assay type: cell-based; settings: S.AUREUS 6538
Procedure: This is a Gram-positive coccus which is particularly sensitive to penicillins and which has a low resistance mechanism. This strain of Staphylococcus is, therefore, representative of a maximum sensitivity of the species.
as §1, §2

[3] = test system: Staphylococcus aureus 52149; assay: as above; assay type: cell-based; settings: S.AUREUS 52149
Procedure: This is a Gram-positive coccus, the intrinsic sensitivity of the receptor of which is equivalent to that of the preceding strain but which produces a beta-lactamase which is typical of the species and which renders it resistant to all the penicillins which are sensitive to hydrolysis.
as §1, §2

beta-lactamase P 99 = beta-lactamase P 99 (Enterobacter cloacae, UniProt P05364); assay: Hydrolysis kinetics: residual activity in the presence of beta-lactamase; assay type: biochemical, Gram-negative bacteria
Chain of beta-lactamase P 99 (P05364 21-381): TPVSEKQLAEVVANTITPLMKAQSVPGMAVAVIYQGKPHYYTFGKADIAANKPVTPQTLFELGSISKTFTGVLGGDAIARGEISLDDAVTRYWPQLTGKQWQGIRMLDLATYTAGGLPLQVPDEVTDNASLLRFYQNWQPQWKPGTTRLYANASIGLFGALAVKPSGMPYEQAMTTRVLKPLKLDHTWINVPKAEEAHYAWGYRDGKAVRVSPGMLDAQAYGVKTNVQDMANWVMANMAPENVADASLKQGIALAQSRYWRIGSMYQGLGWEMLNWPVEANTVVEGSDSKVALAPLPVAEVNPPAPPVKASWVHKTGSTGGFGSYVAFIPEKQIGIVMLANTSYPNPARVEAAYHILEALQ

Escherichia coli K 12-44 = assay: MIC in gelose culture medium (relative to reference penicillin); assay type: cell-based; settings: E.COLI K 12-44; reference ampicillin = 1
Procedure: This is a mutant of Escherichia coli K 12, the typical reference parent strain of the species. This mutant is not a producer of beta-lactamase.
as §1, §2

beta-lactamase TEM [4] = target: beta-lactamase TEM (Escherichia coli, UniProt P62593); assay: Hydrolysis kinetics: residual activity in the presence of beta-lactamase; assay type: biochemical, Gram-negative bacteria
Chain of beta-lactamase TEM (Escherichia coli, UniProt P62593) (P62593 24-286 limits assumed): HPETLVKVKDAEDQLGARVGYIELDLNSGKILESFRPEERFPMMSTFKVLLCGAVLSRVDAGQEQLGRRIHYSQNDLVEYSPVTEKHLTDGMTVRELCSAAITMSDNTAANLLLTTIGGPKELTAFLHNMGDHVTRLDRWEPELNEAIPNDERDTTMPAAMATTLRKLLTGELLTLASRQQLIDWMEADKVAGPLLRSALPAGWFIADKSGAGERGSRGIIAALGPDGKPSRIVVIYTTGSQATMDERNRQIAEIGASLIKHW

[5] = test system: Escherichia coli K 12-44 R; assay: MIC in gelose culture medium (relative to reference penicillin); assay type: cell-based; settings: E.COLI K 12-44R; reference ampicillin = 1
Procedure: This strain is a pleiotropic mutant of Escherichia coli K 12-44, which we have produced. It is not a producer of beta-lactamase but, nevertheless, it has a resistance to penicillins, probably as a result of the modification of the permeability of the cell membranes.
as §1, §2

[6] = test system: Escherichia coli K 12-44 S; assay: as above; assay type: cell-based; settings: E.COLI K 12-44S; reference ampicillin = 1
Procedure: It is very sensitive to penicillins due to hyperpermeability.
as §1, §2

beta-lactamase TEM [7] = assay: Rate of hydrolysis by beta-lactamase measured as NaOH consumed per minute; assay type: biochemical
Text: This method allows the dosage of the penicilloic acid resulting from the hydrolysis of the beta-lactam function by the lytic enzyme. The results of these kinetics, as given in the following Table, clearly show the superiority of compounds E and H as compared with pencillin G.

[8] = reference 6-amino-penicillanic acid = 1

With `O=C(Cc1ccccc1)N[C@@H]1C(=O)N2[C@@H]1SC1(CCOCC1)[C@@H]2C(=O)O` (relative stereo) [Compound A, 6-(2"-phenylacetamido)-2',3',5',6'-tetrahydro-spiro[penam-2,4'-[4H]pyran]-3-carboxylic acid] the “MIC relative to reference compound (=1)” value ([1]; reference penicillin G = 1) was 2, the “MIC relative to reference compound (=1)” value (Escherichia coli B; reference penicillin G = 1) was 4 and the “MIC relative to reference compound (=1)” value ([2]; reference penicillin G = 1) was 2. The “MIC relative to reference compound (=1)” value ([3]; reference penicillin G = 1) was 2.
With `Cc1onc(-c2ccccc2)c1C(=O)N[C@@H]1C(=O)N2[C@@H]1SC1(CCOCC1)[C@@H]2C(=O)O` (relative stereo) [Compound C, 6-(5"-methyl-3"-phenyl-4"-isoxazolecarboxamido)-2',3',5',6'-tetrahydro-spiro[penam-2,4'-[4H]pyran]-3-carboxylic acid] the “MIC relative to reference compound (=1)” value ([2]; reference oxacillin = 1) was 2 and the “MIC relative to reference compound (=1)” value ([3]; reference oxacillin = 1) was 1.
`COc1cccc(OC)c1C(=O)N[C@@H]1C(=O)N2[C@@H]1SC1(CCSCC1)[C@@H]2C(=O)O` (relative stereo) [Compound G, 6-(2",6"-dimethoxybenzamido)-2',3',5',6'-tetrahydro-spiro[penam-2,4'-[4H]thiopyran]-3-carboxylic acid] was tested, and the “MIC relative to reference compound (=1)” value ([3]; reference methicillin = 1) was 0.5.
In the case of `N[C@@H](C(=O)NC1C(=O)N2C1SC1(CCOCC1)C2C(=O)O)c1ccccc1` (single isomer, unassigned) [Compound B, 6-(2"-amino-2"-phenylacetamido)-2',3',5',6'-tetrahydro-spiro[penam-2,4'-[4H]pyran]-3-carboxylic acid], the “Remaining activity as percentage of initial” value (beta-lactamase P 99; after incubation for 9 minutes) was 67%, the “Residual activity in the presence of beta-lactamase” value (“Residual activity in the presence” for short) (beta-lactamase P 99; incubation time 0 minutes) was 500 µmol and the “Residual activity in the presence” value (beta-lactamase P 99; incubation time 3 minutes) was 458 µmol. For the same molecule, the “Residual activity in the presence” value (beta-lactamase P 99; incubation time 6 minutes) was 422 µmol, the “Residual activity in the presence” value (beta-lactamase P 99; incubation time 9 minutes) was 334 µmol and the “Residual activity in the presence” value (beta-lactamase P 99; incubation time 12 minutes) was 312 µmol. For the same molecule, the “Residual activity in the presence” value (beta-lactamase P 99; incubation time 20 minutes) was 300 µmol, the “MIC relative to reference compound (=1)” value ([1]; reference ampicillin = 1) was 1 and the “MIC relative to reference compound (=1)” value (Escherichia coli K 12-44) was 3.5. The “Remaining activity as percentage of initial” value (beta-lactamase TEM [4]; after incubation for 6 minutes) was 87%, the “Residual activity in the presence” value (beta-lactamase TEM [4]; incubation time 0 minutes) was 500 µmol and the “Residual activity in the presence” value (beta-lactamase TEM [4]; incubation time 2 minutes) was 469 µmol. For the same molecule, the “Residual activity in the presence” value (beta-lactamase TEM [4]; incubation time 4 minutes) was 453 µmol, the “Residual activity in the presence” value (beta-lactamase TEM [4]; incubation time 6 minutes) was 438 µmol and the “Residual activity in the presence” value (beta-lactamase TEM [4]; incubation time 12 minutes) was 334 µmol. The “Residual activity in the presence” value (beta-lactamase TEM [4]; incubation time 18 minutes) was 225 µmol, the “MIC relative to reference compound (=1)” value (Escherichia coli B; reference ampicillin = 1) was 3.5 and the “MIC relative to reference compound (=1)” value [5] was 1.5.
For `CC1(C)S[C@@H]2[C@H](NC(=O)[C@H](N)c3ccccc3)C(=O)N2[C@H]1C(=O)O` [Ampicillin, ampicillin, reference compound], the “Residual activity in the presence” value (beta-lactamase P 99; incubation time 0 minutes) was 500 µmol, the “Residual activity in the presence” value (beta-lactamase P 99; incubation time 3 minutes) was 262 µmol and the “Residual activity in the presence” value (beta-lactamase P 99; incubation time 6 minutes) was 138 µmol. For the same molecule, the “Residual activity in the presence” value (beta-lactamase P 99; incubation time 9 minutes) was under 50 µmol, the “Residual activity in the presence” value (beta-lactamase P 99; incubation time 9 minutes, listed as ampicillin) was “no more detectable” and the “Residual activity in the presence” value (beta-lactamase P 99; incubation time 12 minutes) was under 50 µmol. For the same molecule, the “Residual activity in the presence” value (beta-lactamase P 99; incubation time 20 minutes) was under 50 µmol, the “MIC relative to reference compound (=1)” value ([1]; reference ampicillin = 1) was 1 and the “MIC relative to reference compound (=1)” value (Escherichia coli K 12-44) was 1. The “Residual activity in the presence” value (beta-lactamase TEM [4]; incubation time 0 minutes) was 500 µmol, the “Residual activity in the presence” value (beta-lactamase TEM [4]; incubation time 6 minutes) was under 50 µmol and the “Residual activity in the presence” value (beta-lactamase TEM [4]; incubation time 6 minutes, listed as ampicillin) was “no more detectable”. The “Residual activity in the presence” value (beta-lactamase TEM [4]; incubation time 12 minutes) was under 50 µmol, the “Residual activity in the presence” value (beta-lactamase TEM [4]; incubation time 18 minutes) was under 50 µmol and the “MIC relative to reference compound (=1)” value [6] was 1. For the same molecule, the “MIC relative to reference compound (=1)” value (Escherichia coli B; reference ampicillin = 1) was 1, the “MIC relative to reference compound (=1)” value ([2]; reference ampicillin = 1) was 1 and the “MIC relative to reference compound (=1)” value [5] was 1.
With `NC(C(=O)NC1C(=O)N2C1SC1(CCSCC1)C2C(=O)O)c1ccccc1` (stereo not drawn) [Compound F, 6-(2"-amino-2"-phenylacetamido)-2',3',5',6'-tetrahydro-spiro[penam-2,4'-[4H]thiopyran]-3-carboxylic acid] the “Resistance to beta-lactamase as compared with ampicillin (in words)” value (beta-lactamase P 99) was “increased resistance”, the “MIC relative to reference compound (=1)” value ([1]; reference ampicillin = 1) was 3 and the “MIC relative to reference compound (=1)” value (Escherichia coli K 12-44) was 10. The “Resistance to beta-lactamase as compared with ampicillin (in words)” value (beta-lactamase TEM [4]) was “increased resistance”, the “MIC relative to reference compound (=1)” value [6] was 15 and the “MIC relative to reference compound (=1)” value (Escherichia coli B; reference ampicillin = 1) was 7. The “MIC relative to reference compound (=1)” value ([2]; reference ampicillin = 1) was 2 and the “MIC relative to reference compound (=1)” value [5] was over 1.5.
With `NC(C(=O)NC1C(=O)N2C1SC1(CC[S+]([O-])CC1)C2C(=O)O)c1ccccc1` (stereo not drawn) [Compound J, 6-(2"-amino-2"-phenylacetamido)-2',3',5',6'-tetrahydro-spiro[penam-2,4'-[4H]thiopyran]-3-carboxylic acid 1'-oxide] the “Resistance to beta-lactamase as compared with ampicillin (in words)” value (beta-lactamase P 99) was “No change in behavior”, the “MIC relative to reference compound (=1)” value ([1]; reference ampicillin = 1) was 2 and the “MIC relative to reference compound (=1)” value (Escherichia coli K 12-44) was 3. For the same molecule, the “Resistance to beta-lactamase as compared with ampicillin (in words)” value (beta-lactamase TEM [4]) was “No change in behavior”, the “MIC relative to reference compound (=1)” value [6] was 3 and the “MIC relative to reference compound (=1)” value (Escherichia coli B; reference ampicillin = 1) was 1. For the same molecule, the “MIC relative to reference compound (=1)” value ([2]; reference ampicillin = 1) was 2 and the “MIC relative to reference compound (=1)” value [5] was 2.
For `COc1cccc(OC)c1C(=O)N[C@@H]1C(=O)N2[C@@H]1SC(C)(C)[C@@H]2C(=O)O` [Methicillin, methicillin, reference compound], the “MIC relative to reference compound (=1)” value ([3]; reference methicillin = 1) was 1.
For `Cc1onc(-c2ccccc2)c1C(=O)N[C@@H]1C(=O)N2[C@@H]1SC(C)(C)[C@@H]2C(=O)O` [Oxacillin, oxacillin, reference compound], the “MIC relative to reference compound (=1)” value ([2]; reference oxacillin = 1) was 1 and the “MIC relative to reference compound (=1)” value ([3]; reference oxacillin = 1) was 1.
In the case of `CC1(C)S[C@@H]2C(N)C(=O)N2[C@H]1C(=O)O` (stereo partly drawn) [Penicillanic acid, 6-amino-penicillanic acid, reference compound], the “MIC relative to reference compound (=1)” value [1, 8] was 1, the “MIC relative to reference compound (=1)” value (Escherichia coli B; [8]) was 1 and the “MIC relative to reference compound (=1)” value [2, 8] was 1. The “MIC relative to reference compound (=1)” value [3, 8] was 1.
For `CC1(C)S[C@@H]2[C@H](NC(=O)Cc3ccccc3)C(=O)N2[C@H]1C(=O)O` [Penicillin G, penicillin G, reference compound], the “Rate of hydrolysis: microliters 0.005 N NaOH consumed per minute” value (beta-lactamase TEM [7]) was 3.83 microliters 0.005 N NaOH per m, the “MIC relative to reference compound (=1)” value ([2]; reference penicillin G = 1) was 1 and the “MIC relative to reference compound (=1)” value ([3]; reference penicillin G = 1) was 1.
